Article PMC11050599, “Novel Tetracyclic Azaphenothiazines with the Quinoline Ring as New Anticancer and Antibacterial Derivatives of Chlorpromazine” (International Journal of Molecular Sciences, 2024)
In brackets after ≈: the same amount, converted by molar mass. Read-outs that look alike come from different tables or passages of the source. Values belong to the compound of their own block, whether it stands above or below them.

Tests used:
PC3 (prostate cancer) = experiment: MTT assay, PC3 cells; type: cell-based, human; settings: for IC50: Homo sapiens, read-out: IC50 PC3; for SI PC3: SI = IC50 for normal cell line (HaCaT)/IC50 cancer cell line
Procedure: (§1) The human cell lines, such as A549 (lung cancer), MDA-MB-231 (breast cancer), MiaPaca-2 (pancreatic cancer), PC3 (metastatic prostate cancer), HCT-116 (colon carcinoma), and HaCaT (immortalized keratinocytes), were sourced from the American Type Culture Collection (ATCC) in Rockville, USA. Culturing conditions varied as follows: HCT116 cells were cultured in MEM (ThermoSci, Waltham, MA, USA), A549, MDA-MB-231, MiaPaca, HaCaT cells in DMEM High Glucose and PC3 cells were cultured in RPMI (Biowest SAS, Nuaillé, France). The growth medium consisted of 10% fetal bovine serum (FBS, Sigma-Aldrich, St. Louis, MO, USA), 20 mM HEPES (Biowest, Nuaillé, France), and antibiotics (100 U/mL of penicillin and 100 μg/mL of streptomycin) from Gibco, Grand Island, NY, USA. […] These compounds were added to 96-well plates containing study cells (1 × 10^4 cells per well) and incubated for 72 h. […] Cell absorbance results were incorporated into the formula for calculating the relative MTT level (%), enabling the assessment of cell viability following exposure to the test compounds. The cell viability percentage represents the MTT reduction in cells treated with the test compounds compared to the control sample, where only the medium was added to the cells.

HCT116 cells [1] = experiment: Cell cycle analysis by flow cytometry, HCT116; type: cell-based, human; settings: IC50, 24 h, compared to the control
Procedure: In brief, cells were seeded at a density of 1 × 10^5 cells/well on a six-well plate and allowed to adhere for 24 h. […] Both population cells (the attached and detached) were collected and centrifuged at 400× g for 5 min at 4 °C. After centrifugation, the cells were washed twice with 0.9% NaCl and subsequently fixed in 500 μL of 70 % cold ethanol overnight.
Before analysis, the fixed cells underwent another centrifugation step at 850× g for 5 min at 4 °C and were washed with PBS. Following the washes, the cells were incubated with 50 μL of RNase (100 μg/mL) and 200 μL of propidium iodide (PI) (50 μg/mL) at 37 °C for 30 min in the dark. Finally, 100 μL of PBS was added to each sample. Flow cytometry (Becton Dickinson FACS Verse, Franklin Lakes, NJ, USA) was then used to analyze the cell cycle distribution, identifying cells in various stages including sub-G1, G0/G1, S, and G2/M phases. Each assay was performed in quadruplicate.

A549 (lung cancer) = experiment: MTT assay, A549 cells; type: cell-based, human; settings: Homo sapiens, read-out: IC50 A549
Procedure: as §1

[2] = system: MDA-MB-231 (breast cancer); experiment: MTT assay, MDA-MB-231 cells; type: cell-based, human; settings: for IC50: Homo sapiens, read-out: IC50 MDA; for SI MDA: SI = IC50 for normal cell line (HaCaT)/IC50 cancer cell line
Procedure: as §1

E. coli ATCC 25922 = experiment: MIC broth microdilution; type: cell-based; settings: Escherichia coli, read-out: MIC E. coli ATCC 25922
Text: (§2) To evaluate the antibacterial effectiveness of chloroquinobenzothiazine derivatives, various bacterial strains from international microbe collections such as the American Type Culture Collection (ATCC) and the National Collection of Type Culture (NCTC) were examined, alongside a panel of clinical rods. This included two Gram-negative organisms, E. coli ATCC 25922 and P. aeruginosa ATCC 15442, and a series of six Gram-positive strains: S. aureus NCTC 4163; S. aureus ATCC 29213, 25923, and 6538; and S. epidermidis ATCC 12228 and 35984. […] The MIC was determined using the two-fold serial broth microdilution method in 96-well microtitration plates containing Mueller-Hinton II broth medium (Becton Dickinson, Franklin Lakes, NJ, USA). The final inoculum for all tested bacteria was adjusted to […] (colony-forming units per milliliter). The stock solution of the tested compounds was prepared in dimethyl sulfoxide (DMSO) and diluted to a maximum of 1% solvent content with a sterile medium.

S. aureus ATCC 25923 = experiment: MIC broth microdilution; type: cell-based; settings: Staphylococcus aureus, read-out: MIC S. aureus ATCC 25923
Text: as §2

S. aureus NCTC 4163 = experiment: MIC broth microdilution; type: cell-based; settings: Staphylococcus aureus, read-out: MIC S. aureus NCTC 4163
Text: as §2

[3] = system: S. epidermidis ATCC 35984; experiment: MIC broth microdilution; type: cell-based; settings: for MIC: Staphylococcus epidermidis, read-out: MIC S. epidermidis ATCC 35984
Text: as §2

S. aureus ATCC 29213 = experiment: MIC broth microdilution; type: cell-based; settings: Staphylococcus aureus, read-out: MIC S. aureus ATCC 29213
Text: as §2

S. aureus ATCC 6538 = experiment: MIC broth microdilution; type: cell-based; settings: Staphylococcus aureus, read-out: MIC S. aureus ATCC 6538
Text: as §2

[4] = system: S. epidermidis ATCC 12228; experiment: MIC broth microdilution; type: cell-based; settings: Staphylococcus epidermidis, read-out: MIC S. epidermidis ATCC 12228
Text: as §2

P. aeruginosa ATCC 15442 = experiment: MIC broth microdilution; type: cell-based; settings: Pseudomonas aeruginosa, read-out: MIC P. aeruginosa ATCC 15442
Text: as §2

HCT116 (colon cancer) = experiment: MTT assay, HCT116 cells; type: cell-based, human; settings: for IC50: Homo sapiens, read-out: IC50 HCT116
Procedure: as §1

A549 cells = experiment: Annexin V-FITC/PI apoptosis flow cytometry, A549; type: cell-based, human; settings: for A549: Alive / A549: Early Apoptotic / A549: Necrotic / A549: Necrotic/Late Apoptotic: representative dot plot, Figure 4A, IC50, 72 h
Procedure: (§3) To analyze the number of cells in early apoptosis, late apoptosis, or necrosis, A549, MiaPaca-2, and HCT-116 cell lines were cultured in 6-well plates with a seeding density of 1 × 10^5 cells per well. These cells were then treated with selected compounds (4, 5, and 8) at their respective IC50 concentrations and incubated for 72 h. Subsequently, a commercially available kit, the FITC: Annexin V Apoptosis Detection Kit I from BD Biosciences Pharmingen in San Jose, CA, USA, was utilized to assess apoptosis. After 72 h the cells were harvested, washed, and labeled with Annexin V-FITC and propidium iodide (PI) following the manufacturer’s protocol (Becton Dickinson), as previously described. The stained cells were analyzed by flow cytometry. The cells were identified as early apoptotic (Annexin V+/PI−) or late apoptotic/necrotic (Annexin V+/PI+).

[5] = system: MiaPaCa-2 (pancreas cancer); experiment: MTT assay, MiaPaCa-2 cells; type: cell-based, human; settings: for IC50: Homo sapiens, read-out: IC50 MiaPaCa-2; for SI MiaPaCa-2: SI = IC50 for normal cell line (HaCaT)/IC50 cancer cell line
Procedure: as §1

HCT116 cells [6] = experiment: Annexin V-FITC/PI apoptosis flow cytometry, HCT116; type: cell-based, human; settings: for HCT-116: Alive / HCT-116: Early Apoptotic / HCT-116: Necrotic / HCT-116: Necrotic/Late Apoptotic: representative dot plot, Figure 4C, IC50, 72 h
Procedure: as §3

[7] = system: HaCaT (immortalized human keratinocytes); experiment: MTT assay, HaCaT normal cells; type: cell-based; settings: Homo sapiens, HaCaT, 72 h, read-out: IC50 HaCaT (Table 3)
Procedure: as §1

Structure (SMILES): O=C(NCCCl)NCCCN1c2cc(Cl)ccc2Sc2cc3ccccc3nc21 [Compound 20, 1-(3-(8-Chloroquino[3,2-b]benzo[1,4]thiazin-6-yl)propyl)-3-(2-chloroethyl)urea]
IC50 (PC3 (prostate cancer); PC-3, 72 h): 34.8 ± 9.8 µM
SI PC3 (PC3 (prostate cancer)): 2.8
increase in the cell amount at the sub-G1 phase, HCT116 (HCT116 cells [1]): 3 fold
IC50 (A549 (lung cancer); A549, 72 h): 9.3 ± 1.2 µM
IC50 ([2]; MDA-MB-231, 72 h): 48.6 ± 7.3 µM
SI MDA [2]: 2.0
MIC (E. coli ATCC 25922; ATCC25922, 19 h): > 256 mg/L
MIC (S. aureus ATCC 25923; ATCC25923, 19 h): 8 mg/L (≈ 17.9 µM)
MIC (S. aureus NCTC 4163; NCTC4163, 19 h): 8 mg/L (≈ 17.9 µM)
MIC S. epidermidis ATCC 35984 ([3]; 19 h, 35 °C): 4 mg/L (≈ 8.94 µM)
MIC ([3]; ATCC35984, 19 h): 4 mg/L (≈ 8.94 µM)
MIC (S. aureus ATCC 29213; ATCC29213, 19 h): 8 mg/L (≈ 17.9 µM)
MIC (S. aureus ATCC 6538; ATCC6538, 19 h): 8 mg/L (≈ 17.9 µM)
MIC ([4]; ATCC12228, 19 h): 8 mg/L (≈ 17.9 µM)
MIC (P. aeruginosa ATCC 15442; ATCC15442, 19 h): > 256 mg/L
IC50 (HCT116 (colon cancer); HCT-116, 72 h): 10.4 ± 1.6 µM
SI HCT116 (HCT116 (colon cancer); SI = IC50 for normal cell line (HaCaT)/IC50 cancer cell line): 8.8
A549: Alive (A549 cells): 88.24%
A549: Early Apoptotic (A549 cells): 0.13%
A549: Necrotic (A549 cells): 10.74%
A549: Necrotic/Late Apoptotic (A549 cells): 0.89%
IC50 ([5]; MIA PaCa-2, 72 h): 23.2 ± 2.7 µM
SI MiaPaCa-2 [5]: 4.3
HCT-116: Alive (HCT116 cells [6]): 83.79%
HCT-116: Early Apoptotic (HCT116 cells [6]): 7.24%
HCT-116: Necrotic (HCT116 cells [6]): 4.80%
HCT-116: Necrotic/Late Apoptotic (HCT116 cells [6]): 4.17%
IC50 [7]: > 100 µM

IC50 (PC3 (prostate cancer); PC-3, MTT, 72 h): 52.1 ± 7.1 µM
IC50 (A549 (lung cancer); A549, MTT, 72 h, mean SD): 8.2 ± 3.6 µM
IC50 ([2]; MDA-MB-231, MTT, 72 h, MDA-MB231): 52.1 ± 2.7 µM
MIC (E. coli ATCC 25922; ATCC25922, 19 h, 35 °C): 64 mg/L (≈ 173 µM)
MIC (S. aureus ATCC 25923; ATCC25923, 19 h, 35 °C): 8 mg/L (≈ 21.6 µM)
MIC (S. aureus NCTC 4163; NCTC4163, 19 h, 35 °C): 8 mg/L (≈ 21.6 µM)
MIC ([3]; ATCC35984, 19 h, 35 °C): 8 mg/L (≈ 21.6 µM)
MIC (S. aureus ATCC 29213; ATCC29213, 19 h, 35 °C): 8 mg/L (≈ 21.6 µM)
MIC (S. aureus ATCC 6538; ATCC6538, 19 h, 35 °C): 8 mg/L (≈ 21.6 µM)
MIC ([4]; ATCC12228, 19 h, 35 °C): 8 mg/L (≈ 21.6 µM)
MIC (P. aeruginosa ATCC 15442; ATCC15442, 19 h, 35 °C): 256 mg/L (≈ 692 µM)
IC50 (HCT116 (colon cancer); HCT-116, MTT, 72 h): 1.6 ± 0.8 µM
IC50 ([5]; MIA PaCa-2, MTT, 72 h): 40.2 ± 0.7 µM
Structure (SMILES): CN(C)CCCN1c2cc(Cl)ccc2Sc2cc3ccccc3nc21 [Compound 8, 3-(8-Chloroquino[3,2-b]benzo[1,4]thiazin-6-yl)-N,N-dimethylpropan-1-amine]
SI PC3 (PC3 (prostate cancer)): 1.2
increase in the cell amount at the sub-G1 phase, HCT116 (HCT116 cells [1]): 5 fold
increase in the number of cells in the G2/M phase, HCT116 (HCT116 cells [1]): approximately 1.3 fold
increase in the number of cells in the S phase, HCT116 (HCT116 cells [1]): approximately 2 fold
SI MDA [2]: 1.2
cells in late apoptosis or necrosis, A549 (A549 cells; compound at IC50, 72 h): 42%
A549: Alive (A549 cells): 62.41%
A549: Early Apoptotic (A549 cells): 2.39%
A549: Necrotic (A549 cells): 24.93%
A549: Necrotic/Late Apoptotic (A549 cells): 10.27%
SI MiaPaCa-2 [5]: 1.6
cells in early apoptosis, HCT116 (HCT116 cells [6]; compound at IC50, 72 h): 9.09 ± 0.5%
cells in late apoptosis/necrosis, HCT116 (HCT116 cells [6]; compound at IC50, 72 h): 8.55 ± 0.33%
HCT-116: Alive (HCT116 cells [6]): 78.75%
HCT-116: Early Apoptotic (HCT116 cells [6]): 9.09%
HCT-116: Necrotic (HCT116 cells [6]): 3.61%
HCT-116: Necrotic/Late Apoptotic (HCT116 cells [6]): 8.55%
IC50 ([7]; MTT, normal cells): 62.3 ± 2.5 µM
